{"source": "ChEMBL document CHEMBL1201862", "about": "“PubChem BioAssay data set” (2004)", "key": {"[1]": {"target": "Delta-type opioid receptor (Homo sapiens, UniProt P41143)", "sequence (P41143 whole entry)": "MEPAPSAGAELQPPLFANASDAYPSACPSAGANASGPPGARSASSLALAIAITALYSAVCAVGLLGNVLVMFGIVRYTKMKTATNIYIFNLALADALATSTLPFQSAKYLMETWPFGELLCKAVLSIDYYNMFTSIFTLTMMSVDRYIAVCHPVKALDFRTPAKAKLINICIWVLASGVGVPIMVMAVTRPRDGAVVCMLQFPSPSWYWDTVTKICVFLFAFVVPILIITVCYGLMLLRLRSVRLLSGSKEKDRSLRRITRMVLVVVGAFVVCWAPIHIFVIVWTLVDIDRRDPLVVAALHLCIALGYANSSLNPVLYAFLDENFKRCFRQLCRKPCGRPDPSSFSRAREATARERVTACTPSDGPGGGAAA", "experiment": "SAR Analysis of Antagonists of the DOR Receptor using an Image-Based Assay - Set 3. [Related pubchem assays (depositor defined):AID1777, AID1785]", "type": "functional"}, "[2]": {"target": "T1, Kappa-type opioid receptor (Homo sapiens, UniProt P41145)", "T1 sequence (P41145 whole entry)": "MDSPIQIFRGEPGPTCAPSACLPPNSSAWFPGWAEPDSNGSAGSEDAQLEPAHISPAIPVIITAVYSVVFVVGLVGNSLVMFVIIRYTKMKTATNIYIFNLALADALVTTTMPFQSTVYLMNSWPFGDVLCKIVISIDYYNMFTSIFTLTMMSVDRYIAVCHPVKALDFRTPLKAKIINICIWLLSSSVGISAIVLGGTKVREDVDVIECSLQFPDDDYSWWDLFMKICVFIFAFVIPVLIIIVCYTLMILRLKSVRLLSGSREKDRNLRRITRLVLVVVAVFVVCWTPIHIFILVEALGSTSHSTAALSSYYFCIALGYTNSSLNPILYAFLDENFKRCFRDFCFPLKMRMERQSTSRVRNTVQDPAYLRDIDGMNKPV", "experiment": "SAR analysis of small molecule antagonists of the kappa opioid receptor via a luminescent beta-arrestin assay - Set 3. [Related pubchem assays (depositor defined):AID1777, AID1778, AID1785, AID1786, AID1966, AID2133, AID2136, AID2285, AID2495]", "type": "functional"}, "[3]": {"target": "Mu-type opioid receptor (Homo sapiens, UniProt P35372)", "sequence (P35372 whole entry)": "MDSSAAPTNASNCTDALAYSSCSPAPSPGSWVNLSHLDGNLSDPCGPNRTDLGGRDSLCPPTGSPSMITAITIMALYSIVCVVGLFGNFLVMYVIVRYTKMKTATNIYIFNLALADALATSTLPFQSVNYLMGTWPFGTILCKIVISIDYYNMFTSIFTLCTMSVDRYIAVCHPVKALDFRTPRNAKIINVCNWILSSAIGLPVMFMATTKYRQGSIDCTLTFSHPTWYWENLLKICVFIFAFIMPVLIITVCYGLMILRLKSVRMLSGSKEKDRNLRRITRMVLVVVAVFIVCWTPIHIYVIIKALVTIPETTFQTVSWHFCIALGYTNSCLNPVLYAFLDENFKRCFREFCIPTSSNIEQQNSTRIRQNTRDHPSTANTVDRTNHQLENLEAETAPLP", "experiment": "SAR Analysis of Antagonists of the MOR Receptor using an Image-Based Assay - Set 3. [Related pubchem assays (depositor defined):AID1777, AID1785, AID1786, AID1966, AID2133, AID2136, AID2284, AID2285, AID2420]", "type": "functional"}, "[4]": {"target": "T1, Kappa-type opioid receptor", "experiment": "SAR analysis of Antagonists of the Kappa Opioid Receptor (KOR) using an Image-Based Assay - Set 3. [Related pubchem assays (depositor defined):AID1777, AID1785]", "type": "functional"}, "[5]": {"experiment": "cytotoxicity toward DRD oncogenic fibroblasts, dose response, cell-based, non-viral oncogenic, luminescence (AID 1934)", "type": "functional", "details": "Homo sapiens"}, "[6]": {"tested_on": "HEK293", "experiment": "NOD1 signaling inhibitors, primary screen, cell-based, luminescence, uHTS (AID 1578)", "type": "functional", "details": "Homo sapiens"}, "[7]": {"target": "T2, Histone-lysine N-methyltransferase NSD2 (Homo sapiens, UniProt O96028)", "T2 sequence (O96028 whole entry)": "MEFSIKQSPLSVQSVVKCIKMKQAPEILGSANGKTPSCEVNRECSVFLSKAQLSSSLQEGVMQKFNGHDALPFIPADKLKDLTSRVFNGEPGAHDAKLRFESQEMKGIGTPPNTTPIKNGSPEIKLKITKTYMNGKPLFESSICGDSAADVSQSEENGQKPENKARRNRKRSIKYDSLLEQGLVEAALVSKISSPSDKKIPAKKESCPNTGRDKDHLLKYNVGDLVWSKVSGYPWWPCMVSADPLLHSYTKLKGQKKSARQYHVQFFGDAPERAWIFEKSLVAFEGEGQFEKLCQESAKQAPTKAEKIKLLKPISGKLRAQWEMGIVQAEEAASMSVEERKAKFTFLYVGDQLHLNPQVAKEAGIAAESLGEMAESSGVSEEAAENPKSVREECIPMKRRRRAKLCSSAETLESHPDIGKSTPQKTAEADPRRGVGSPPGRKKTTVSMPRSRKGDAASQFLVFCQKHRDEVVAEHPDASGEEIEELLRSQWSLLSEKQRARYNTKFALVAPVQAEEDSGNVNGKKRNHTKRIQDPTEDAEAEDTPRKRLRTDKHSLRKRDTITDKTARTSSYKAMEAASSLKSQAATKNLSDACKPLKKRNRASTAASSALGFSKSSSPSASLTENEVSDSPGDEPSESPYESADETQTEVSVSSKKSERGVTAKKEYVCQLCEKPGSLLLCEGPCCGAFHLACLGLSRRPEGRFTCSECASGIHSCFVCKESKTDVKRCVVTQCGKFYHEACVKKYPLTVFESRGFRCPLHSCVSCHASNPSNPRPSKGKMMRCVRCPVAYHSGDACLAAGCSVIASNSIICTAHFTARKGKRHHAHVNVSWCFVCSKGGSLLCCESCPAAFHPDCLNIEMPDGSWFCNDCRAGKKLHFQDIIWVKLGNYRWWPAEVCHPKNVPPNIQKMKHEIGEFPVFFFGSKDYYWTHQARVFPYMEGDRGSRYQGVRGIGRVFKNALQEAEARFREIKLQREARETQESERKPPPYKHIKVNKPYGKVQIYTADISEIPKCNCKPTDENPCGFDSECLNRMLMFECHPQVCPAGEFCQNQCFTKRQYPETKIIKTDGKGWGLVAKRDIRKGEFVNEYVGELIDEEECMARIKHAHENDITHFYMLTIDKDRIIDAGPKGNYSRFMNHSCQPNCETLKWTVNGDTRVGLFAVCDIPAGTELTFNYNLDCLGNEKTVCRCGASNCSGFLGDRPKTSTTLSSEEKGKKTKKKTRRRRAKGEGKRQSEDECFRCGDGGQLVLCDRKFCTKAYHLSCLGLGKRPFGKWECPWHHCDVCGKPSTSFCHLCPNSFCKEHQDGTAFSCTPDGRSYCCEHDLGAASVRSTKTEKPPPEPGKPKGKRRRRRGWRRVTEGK", "type": "biochemical"}, "[8]": {"tested_on": "BJ", "experiment": "cytotoxicity toward BJ-TERT-LT-ST fibroblasts, dose response, cell-based, RAS-independent, luminescence (AID 1935);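 also: BJ fibroblasts immortalized with TERT plus LT and ST oncogenes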", "type": "functional", "details": "Homo sapiens"}, "[9]": {"tested_on": "BJ", "experiment": "cells", "type": "functional, cell-based", "details": "Homo sapiens"}, "[10]": {"target": "Protein S100-A4 (Homo sapiens, UniProt P26447)", "sequence (P26447 whole entry)": "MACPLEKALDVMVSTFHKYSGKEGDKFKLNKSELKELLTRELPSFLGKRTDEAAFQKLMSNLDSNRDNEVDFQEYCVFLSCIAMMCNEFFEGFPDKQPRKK", "experiment": "S100A4-myosin IIA binding inhibitor potency, dose response, biochemical, fluorescence polarization, cherry-picked hits (AID 687001)", "type": "functional"}, "[11]": {"experiment": "cells"}, "[12]": {"target": "Nonstructural protein 1 (Influenza A virus, UniProt Q194T2)", "sequence (Q194T2 whole entry)": "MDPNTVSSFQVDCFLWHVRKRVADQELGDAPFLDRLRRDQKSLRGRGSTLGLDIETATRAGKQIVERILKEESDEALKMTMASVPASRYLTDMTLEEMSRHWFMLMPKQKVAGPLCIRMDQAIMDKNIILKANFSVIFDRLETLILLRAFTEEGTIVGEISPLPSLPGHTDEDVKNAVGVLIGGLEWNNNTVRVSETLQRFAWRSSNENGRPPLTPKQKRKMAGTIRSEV", "type": "functional, Influenza A virus (A/California/07/2009(H1N1))"}, "[13]": {"tested_on": "HEK293", "experiment": "cells", "type": "functional, cell-based", "details": "Homo sapiens"}, "[14]": {"tested_on": "HEK293", "experiment": "cells", "type": "functional, cell-based", "details": "Homo sapiens", "remark": "listed apart in the source"}, "[15]": {"experiment": "cytotoxicity toward NIH3T3 fibroblasts, dose response, counter-screen, cell-based, ATP luminescence, mouse fibroblasts (AID 2010);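 also: cells exposed to compound for about 90 hours before reading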", "type": "functional"}, "[16]": {"tested_on": "HEK293", "experiment": "cells", "type": "functional, cell-based", "details": "Homo sapiens", "remark": "listed apart in the source"}, "[17]": {"experiment": "C. albicans growth with fluconazole, confirmation, fluorescence, retest (AID 2467)", "type": "functional, cell-based"}, "[18]": {"target": "Nucleotide-binding oligomerization domain-containing protein 2 (Homo sapiens, UniProt Q9HC29)", "sequence (Q9HC29 whole entry, the tested form may be a part)": "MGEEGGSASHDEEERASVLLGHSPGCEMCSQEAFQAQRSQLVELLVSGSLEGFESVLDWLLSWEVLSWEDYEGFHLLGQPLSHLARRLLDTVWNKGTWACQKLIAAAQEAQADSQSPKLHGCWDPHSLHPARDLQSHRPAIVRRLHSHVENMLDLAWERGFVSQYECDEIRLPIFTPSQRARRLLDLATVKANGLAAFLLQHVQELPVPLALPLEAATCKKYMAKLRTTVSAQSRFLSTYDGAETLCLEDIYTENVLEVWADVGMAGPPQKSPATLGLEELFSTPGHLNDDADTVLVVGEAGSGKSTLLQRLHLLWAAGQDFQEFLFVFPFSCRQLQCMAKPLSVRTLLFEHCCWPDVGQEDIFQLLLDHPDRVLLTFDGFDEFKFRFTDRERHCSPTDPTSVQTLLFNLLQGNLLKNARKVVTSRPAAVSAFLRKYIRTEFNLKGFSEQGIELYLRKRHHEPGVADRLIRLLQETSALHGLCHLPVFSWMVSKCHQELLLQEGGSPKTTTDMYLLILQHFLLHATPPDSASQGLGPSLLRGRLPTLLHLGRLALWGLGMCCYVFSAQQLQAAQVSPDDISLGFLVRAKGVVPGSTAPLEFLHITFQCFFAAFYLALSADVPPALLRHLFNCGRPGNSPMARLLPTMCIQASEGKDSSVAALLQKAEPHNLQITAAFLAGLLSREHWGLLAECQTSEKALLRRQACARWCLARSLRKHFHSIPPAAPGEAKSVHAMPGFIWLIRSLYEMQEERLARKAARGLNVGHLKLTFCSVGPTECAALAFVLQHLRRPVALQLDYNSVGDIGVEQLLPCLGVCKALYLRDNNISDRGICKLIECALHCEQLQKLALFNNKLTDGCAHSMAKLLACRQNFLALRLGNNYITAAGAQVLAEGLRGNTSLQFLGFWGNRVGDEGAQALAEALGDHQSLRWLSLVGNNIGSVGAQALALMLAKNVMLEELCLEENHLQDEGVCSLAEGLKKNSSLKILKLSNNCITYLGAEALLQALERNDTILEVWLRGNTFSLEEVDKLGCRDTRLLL", "experiment": "NOD2 signaling inhibitors, cell-based, luminescence, uHTS, HEK293 (AID 1566)", "type": "functional"}, "[19]": {"experiment": "NIH-3T3 fibroblast cytotoxicity, dose response, cytotoxicity control, cell-based, fluorescence, Alamar Blue, secondary assay (AID 2327);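 also: NIH-3T3 mouse fibroblasts cultured with fluconazole at 8 µg/mL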", "type": "functional"}, "[20]": {"tested_on": "HEK293", "experiment": "NOD2 signaling inhibitors in MDP-stimulated cells, cell-based, uHTS, luminescence (AID 2001)", "type": "functional", "details": "Homo sapiens"}, "[21]": {"experiment": "cytotoxicity in HEK-293T cells, dose response, cytotoxicity control for TCR NF-kB inhibitor project, luminescence, T-cell screen hits (AID 489026);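 also: cells exposed to compound about 14 hours before the viability readout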", "type": "functional, cell-based"}, "[22]": {"tested_on": "BJ", "experiment": "cytotoxicity toward BJ-TERT fibroblasts, dose response, cell-based, RAS-independent, luminescence (AID 1933)", "type": "functional", "details": "Homo sapiens"}, "[23]": {"experiment": "inhibitors of intracellular T. cruzi replication, confirmation, NIH3T3 host cells, beta-gal luminescence (AID 2044);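 also: luminescent beta-galactosidase reporter signal from transgenic T. cruzi replicating inside host cells; inhibitors lower the luminescence signal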", "type": "functional, cell-based"}, "[24]": {"target": "G-protein coupled receptor 55 (Homo sapiens, UniProt Q9Y2T6)", "sequence (Q9Y2T6 whole entry)": "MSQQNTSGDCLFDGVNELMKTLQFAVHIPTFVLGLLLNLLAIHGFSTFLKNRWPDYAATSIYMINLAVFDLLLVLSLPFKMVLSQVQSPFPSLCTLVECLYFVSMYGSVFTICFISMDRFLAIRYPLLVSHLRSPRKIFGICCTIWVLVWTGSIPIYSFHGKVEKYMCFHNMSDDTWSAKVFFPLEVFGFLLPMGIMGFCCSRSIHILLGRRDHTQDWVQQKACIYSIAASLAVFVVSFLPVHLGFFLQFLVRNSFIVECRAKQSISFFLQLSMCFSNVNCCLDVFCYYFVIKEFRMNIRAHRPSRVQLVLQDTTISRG", "experiment": "GPR55 agonists via beta-arrestin recruitment, primary screen, imaging, U2OS cells, beta-arrestin-GFP redistribution (AID 1961)", "type": "functional"}}, "note": "Activity calls are given as the source filed them."}
{"smiles": "COc1ccc(S(=O)(=O)NCc2ccc(C(=O)NCCN(Cc3ccccc3)C(C)C)cc2)cc1", "values": [{"measurement": "IC50", "setting": "[1]", "value": "> 32 µM (inactive)"}, {"measurement": "IC50", "setting": "[2]", "value": "2.63 µM (active)"}, {"measurement": "IC50", "setting": "[3]", "value": "9.6 µM (active)"}, {"measurement": "IC50", "setting": "[4]", "value": "0.806 µM (active)"}]}
{"smiles": "CCN(CC)c1ccc(/C=C/c2ccc3ccc(OC)cc3[n+]2CC)cc1", "values": [{"measurement": "EC50", "setting": "[5]", "value": "2.25 µM (active)"}, {"measurement": "EC50", "setting": "[6]", "value": "3.64 µM (active)"}, {"measurement": "AC50", "setting": "[7]", "value": "17.4 µM (active)"}, {"measurement": "EC50", "setting": "[8]", "value": "0.892 µM (inconclusive)"}, {"measurement": "EC50", "setting": "[9]", "value": "2.82 µM (active)"}, {"measurement": "AC50", "setting": "[10]", "value": "1.12 µM (active)"}, {"measurement": "EC50", "setting": "[11]", "value": "0.023 µM (active)"}, {"measurement": "IC50", "setting": "[12]", "value": "17.3 µM (active)"}, {"measurement": "IC50", "setting": "[13]", "value": "9.34 µM (active)"}, {"measurement": "IC50", "setting": "[14]", "value": "1.9 µM (active)"}, {"measurement": "EC50", "setting": "[15]", "value": "5.54 µM (active)"}, {"measurement": "IC50", "setting": "[16]", "value": "> 20 µM (inactive)"}, {"measurement": "EC50", "setting": "[17]", "value": "< 0.03 µM (active)"}, {"measurement": "EC50", "setting": "[18]", "value": "6.78 µM (active)"}, {"measurement": "EC50", "setting": "[19]", "value": "> 160 µM (inconclusive)"}, {"measurement": "IC50", "setting": "[20]", "value": "2.2 µM (active)"}, {"measurement": "IC50", "setting": "[21]", "value": "> 80 µM (inactive)"}, {"measurement": "EC50", "setting": "[22]", "value": "0.732 µM (inconclusive)"}, {"measurement": "EC50", "setting": "[23]", "value": "< 0.1 µM (active)"}, {"measurement": "EC50", "setting": "[24]", "value": "> 32 µM (inactive)"}]}
